The record followed here is PubChem BioAssay AID1508591.

For orientation: half-life means the time needed for the level to fall by half in the phase considered. A low value points to fast loss.

For the data set the following is noted: rat; liver microsomes; pH 7.4; 15.0 min; 1.0 µM. A general note: Liver microsomes are vesicles of endoplasmic reticulum, rich in cytochrome P450 enzymes.
As to `C=C1[C@@H](C)C2[C@H](Cc3ccccc3)NC(=O)[C@@]23C(/C=C/C[C@H](C)C[C@@](C)(O)/C=C/[C@@H]3OC(C)=O)[C@@H]1O` (some centres not stated), the half-life was determined as 5.2 min. To `Cc1cccc2nc(NC3=NC(c4[nH]ncc4Cl)C4=C(CCCC4=O)N3)oc12` (configuration not stated) belongs 1.6 min; to `Oc1ccc(Nc2nc(-c3ccncc3)nc3ccccc23)cc1F`, 28 min. For `CC(C)(C)C(=O)C(Oc1ccc(Cl)cc1)n1ccnc1` (configuration not stated) the value was more than 30 min. For `CC(C)(C)C(=O)N1CCN(c2nccc(Nc3ccccc3Cl)n2)CC1` the value was 4.07 min; for `Cc1noc(C)c1-c1ccc2ncnc(NC(C)c3ccccc3)c2c1` (configuration not stated), 7.65 min; for `COc1cccc(Cn2c(=O)n(-c3cccc(Cl)c3C)c(=O)c3c4c(sc32)CN(C(C)=O)CC4)c1`, 3.17 min.

Consider `Cc1csc2c1c(=O)n(O)c(=O)n2Cc1ccccc1`, for which the half-life is more than 30 min. For `CCCOc1ccc2nc(NC(=O)OC)[nH]c2c1` the value was more than 30 min. To `O=C(NC1CCCc2c1cnn2-c1cccc(O)c1)c1ccccn1` (configuration not stated) belongs 11.9 min. To `CCOc1ccc(CCN(C)C(=O)c2cc3sccc3n2Cc2ccccc2)cc1OCC` belongs 1.7 min; to `O=C(CCCCCCC(=O)Nc1ccccc1)NO`, more than 30 min. `CNc1nccc(-c2cccc3ccccc23)n1` had a half-life of 7.7 min. To `Cc1ccc(S(=O)(=O)Nc2cnccc2C(=O)Nc2ccc(N3CCOCC3)cc2)cc1` belongs 23 min; to `COC(=O)C1=C(C)NC(C)=C(C(=O)O[C@@H]2CCCN(Cc3ccccc3)C2)[C@@H]1c1cccc([N+](=O)[O-])c1`, 1.3 min; to `O=C(c1cc2ccccc2[nH]1)N1CCc2c(n(Cc3cccnc3)n(CCc3ccccc3)c2=O)C1`, 1.55 min. With `CCOc1ccc(CCNC(=O)c2cc3ncccc3n2Cc2cccc(C)c2)cc1OCC`, the half-life is 1.9 min. To `O=S(=O)(Nc1cccc(C(F)(F)F)c1)c1ccc(NS(=O)(=O)c2ccc3c(c2)OCCO3)cc1` belongs 20 min; to `Cc1cccc2nc(-c3cccnc3)c(Nc3ccc(C(C)C)cc3)n12`, 1 min; to `Cc1nn(CC(=O)NCCCN2CCC(N3CCCCC3)CC2)c(=O)c2cc(-c3ccccc3)nn12`, 13 min. To `CCN1C(=O)c2ccccc2S(=O)c2ccc(NC(=O)Cc3ccc(F)cc3)cc21` (configuration not stated) belongs 6.3 min; to `Cn1cc(Cl)c(C2N=C(Nc3nc4ccccc4o3)NC3=C2C(=O)CCC3)n1` (configuration not stated), 7.84 min. In the case of `CNC(=O)c1cc(Oc2ccc(NC(=O)Nc3cc(C(C)(C)C)nn3-c3ccc4ncccc4c3)c(F)c2)ccn1`, the half-life is 6.64 min. For `Cc1ccccc1Nc1c(-c2ccccc2O)nc2sccn12` the value was 2.71 min; for `CC(C)Oc1ccc(C(=O)Nc2ccc3c(c2)CCCN3C(=O)c2cccs2)cc1`, 4.8 min. `CCOC(=O)C1CCN(C(=O)C2(NC(=O)Nc3ccccc3Cl)CCC2)CC1`: the half-life came out at 1.7 min. `CCN(c1ccccc1)S(=O)(=O)c1cc(C(=O)Nc2ccc(Br)cc2)ccc1F` gave a half-life of 1.5 min.

As to `CCOC(=O)c1c(C)c(-c2ccccc2)n(CC(=O)NCc2ccccc2)c1C`, the half-life is 2.28 min.

On to `CCN(CC)S(=O)(=O)c1ccc(N2CCCC2)c(NS(=O)(=O)c2ccccc2)c1`, for which the half-life came out at 1.1 min.

As for `Cc1ccc(S(=O)(=O)Nc2cnccc2C(=O)Nc2nc(-c3cccc(C)c3)cs2)cc1`, the half-life turned out to be 5.8 min. For `NC(=O)C1CCN(c2ncnc(-c3ccc4c(c3)OCCCO4)n2)CC1` the value was 17.3 min; for `Cc1ccc(NS(=O)(=O)c2cc3c(cc2N[C@H](C)CO)NC(=O)CC3)cc1C`, 1.71 min; for `COc1cc2c(c(OC)c1OC)-c1ccc(OC)c(=O)cc1[C@@H](NC(C)=O)CC2`, more than 30 min.

`CC1Oc2cc3c(-c4c(O)cc(O)c5c(O)c6c(cc45)OC(C)C(C)C6=O)c(O)cc(O)c3c(O)c2C(=O)C1C` (configuration not stated) yielded a half-life of more than 30 min. To `Cc1ccc(CCNC(=O)C2CCCN(C(=O)c3cc4sccc4n3C)C2)cc1` (configuration not stated) belongs 1.7 min; to `CCOC(=O)C1CCN(C(=O)C(C)(C)NC(=O)Nc2ccc(Cl)cc2Cl)CC1`, 1.36 min. To `COc1ccc(CN2CCNc3cc(Nc4ccccc4)ncc3C2)cn1` belongs 10 min. To `Nc1nc2c(s1)C(c1c(Cl)cccc1Cl)CC(=O)N2` (configuration not stated) belongs 23.8 min; to `COC(=O)[C@H](NC(=O)c1cc(-c2ccccc2)nc2ccccc12)c1ccccc1`, 11 min; to `CCOC(=O)c1cnc2ccc(-c3cncc(NS(=O)(=O)c4ccccc4)c3)cn12`, 19 min.

As to `O=C(NCCc1nc2ccccc2n1CCO)C1CCCCC1`, the half-life stood at 20.3 min. To `Cc1ccc(C(=O)Nc2nc3nc(-c4ccccc4)cc(=O)n3[nH]2)cc1` belongs more than 30 min; to `NC(=O)c1cnc(N[C@@H]2CCCC[C@@H]2N)nc1Nc1cccc(-n2nccn2)c1`, more than 30 min; to `Cc1nn(CCc2nc(-c3ccccc3F)cs2)c2[nH]c(=O)cc(C(F)(F)F)c12`, 9.3 min. For `CC(C)Oc1ccc(CNC(=O)C2CCN(C(=O)N3CCOc4ccc(Cl)cc43)CC2)cc1` the value was 9.17 min; for `c1cc(OCCN2CCCCC2)cc(-c2n[nH]c3ccc(-c4ncn[nH]4)cc23)c1`, more than 30 min; for `COc1ccc(-n2nc(C)c([C@@H]3C=C[C@@H](NCc4ccc(N(C)C)cc4)C3)c2C)cc1`, 2.69 min. For `CC(C)N(CCCNC(=O)Nc1ccc(C(C)(C)C)cc1)C[C@H]1O[C@@H](n2cc(Br)c3c(N)ncnc32)[C@H](O)[C@H]1O` the value was 2.47 min; for `Nc1cc(-c2nc(Nc3ccc(F)c(F)c3)c3ccccc3n2)ccn1`, 15 min.

In turn, `CCOc1ccc(-c2cn3c(n2)sc2cc(C(=O)NCCCN(CC)CC)ccc23)cc1` returned a half-life of more than 30 min.

Compound `CC(C)(C)n1nc(-c2ccc(Cl)cc2)c2c(N)ncnc21` gave a half-life of more than 30 min. The compound `CC[C@@]1(O)C(=O)OCc2c1cc1n(c2=O)Cc2c-1nc1cc(F)c(C)c3c1c2[C@@H](N)CC3` had a half-life of more than 30 min. Regarding `O=C(O)[C@H]1O[C@H]1C(=O)O`, the half-life came to 14.7 min. For the compound `O=C1CCCC2=C1C(C1CCCCC1Cl)N=C(NC1NC3CCCCC3S1)N2` (configuration not stated), the half-life turned out to be 10.9 min.

Consider `CS(=O)(=O)c1ccc(-c2nnc(/C=C/c3nnc(-c4ccc(C#N)cc4)o3)n2-c2ccccc2Cl)nc1`, for which the half-life is more than 30 min. `O=C1CCCC2=C1C(c1ccccc1C(F)(F)F)N=C(Nc1nc3ccccc3o1)N2` (configuration not stated) returned a half-life of 10 min.

In turn, `C1CCc2nc3c(nc2C1)CCCC3` gave a half-life of more than 30 min. To `CC(=O)c1c(C)[nH]c(C(=O)Nc2cccc(S(=O)(=O)N3CCOCC3)c2)c1C` belongs 17 min. On to `COc1cc(/C=C(\C#N)c2nc3ccccc3[nH]2)ccc1OCc1ccc(F)cc1`, for which the half-life stood at 7.99 min. For `CN(Cc1cccs1)c1ncnc2ccc(-c3ccc4c(c3)OCO4)cc12` the value was 1.44 min. To `COc1ccc(NC2=C(c3ccc(C(F)(F)F)cc3)C(=O)c3ccccc32)cc1` belongs 7.57 min; to `Cc1ccnc(NC(=S)N2CCN(c3cc(Cl)cc(Cl)c3)CC2)c1`, more than 30 min. For `CC(C)(C)NS(=O)(=O)c1ccc(-c2ccc3[nH]nc(N)c3c2)cc1` the value was 17.2 min; for `COc1ccc(Cl)cc1C(=O)Nc1nc(-c2ccccc2)cs1`, 24 min. Turning to `Fc1cc(Nc2nc(-c3ccncc3)nc3ccccc23)ccc1-n1cncn1`, the half-life stood at 13 min. `Cn1cc(-c2nc(Nc3ccc(F)c(F)c3)c3ccccc3n2)cn1`: the half-life came out at 21 min. For `COc1cc(-c2ccnc3c2c(C)nn3-c2cccc(C(F)(F)F)c2)ccc1O` the value was more than 30 min; for `Cc1ccc(S(=O)(=O)n2cc(C(=O)Nc3nc(-c4ccccc4)cs3)c3ccccc32)cc1`, 23 min; for `O=C1Nc2c(Cl)cccc2/C1=C\c1cc(Cl)c(O)c(Cl)c1`, more than 30 min. For `O=C1CCC(C(=O)N2CCSCC2)CN1Cc1ccc(Cl)cc1` (configuration not stated) the value was 10 min; for `COc1ccnc(NC(=S)N2CCN(c3ncc(C(F)(F)F)cc3Cl)CC2)c1`, more than 30 min.

The compound `O=[N+]([O-])c1cccc(CNc2ccc(S(=O)(=O)Nc3nccs3)cc2)c1O` registered a half-life of more than 30 min.
